Patent US20240368125A1, “NOVEL PYRAZINYL-TRIAZOLE COMPOUNDS AS PESTICIDES” (Bayer Aktiengesellschaft, priority 2021, published 2024)

Key:
Assay type in all cases: in vivo
[1] = test system: adult Blattella germanica strain PAULINIA; test: Blattella germanica test (BLTTGE surface treatment & contact assay); settings: surface concentration 20 mg/m^2, 30 min exposure, 24 hours after contact, read-out: efficacy (mortality)
Procedure: Blattella germanica Test (BLTTGE Surface Treatment & Contact Assay
(§1) Solvent: Aceton+2000 ppm rapeseed oil methyl ester (RME)
In order to produce a sufficient, active ingredient containing solution it is necessary to solve the test compound in the solvent-mix (acetone at 2 mg/ml/RME 2000 ppm). This solution is pipetted onto a glazed tile and after evaporation of the acetone, adult animals of the species Blattella germanica strain PAULINIA are placed onto the dried surface. The exposure time is 30 minutes.
Mortality in percent (%) is determined 24 hours after contact of the insects to the treated surface. 100% mortality means that all tested insects are dead, whereas 0% means that no insect died.

[2] = test system: adult cat fleas (Ctenocephalides felis); test: Ctenocephalides felis in-vitro contact test, adult cat flea; settings: Ctenocephalides felis; 1 μg/cm^2 (=100 g/ha), after 48 hours; read-out: efficacy (fleas dead or moribund)
[3] = test system: larvae of the banded cucumber beetle (Diabrotica balteata); test: Diabrotica balteata spray test; settings: Diabrotica balteata, 168 h; 100 g/ha (=32 μg/well), wheat seeds, after 7 days; read-out: efficacy (seedlings grown)
Method in brief: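 Germinated wheat seedlings (5 per well, on agar) sprayed with compound in acetone/DMF with emulsifier-containing water, then infested with 10–20 Diabrotica balteata larvae. Efficacy (%) scored after 7 days from seedling growth: 100% = growth as untreated uninfested control, 0% = no seedlings grown.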

[4] = test system: Rhipicephalus (Boophilus) microplus larvae (strain Parkhurst, resistant against synthetic pyrethroids); test: Rhipicephalus (Boophilus) microplus in-vitro contact test, larval cattle tick; settings: Rhipicephalus microplus; 1 μg/cm^2 (=100 g/ha), after 48 hours; read-out: efficacy (larvae dead or moribund)
Method in brief: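 Compound in acetone coated on glass tube inner walls; 900 ppm solution gives 5 μg/cm^2. Pyrethroid-resistant Parkhurst larvae (20-50 per tube) held at 27° C., 85% relative humidity; efficacy assessed after 48 h by scoring negative geotactic behavior after tapping larvae to tube bottom.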

[5] = test system: brown planthopper (Nilaparvata lugens); test: Nilaparvata lugens spray test; settings: Nilaparvata lugens, in Oryza sativa, 96 h
Procedure: Nilaparvata lugens—Spray Test
(§2) Solvent: 78.0 parts by weight of acetone • • 1.5 parts by weight of dimethylformamide
(§3) Emulsifier: alkylarylpolyglycol ether
(§4) To produce a suitable preparation of active compound, 1 part by weight of active compound is mixed with the stated amount of solvents and is diluted with water, containing an emulsifier concentration of 1000 ppm, to the desired concentration. Further test concentrations are prepared by dilution with emulsifier containing water.
Rice plants (Oryza sativa) are sprayed with a preparation of the active ingredient of the desired concentration and the plants are infested with the brown planthopper (Nilaparvata lugens).
After 4 days mortality in % is determined. 100% means all planthoppers have been killed and 0% means none of the planthoppers have been killed.

[6] = test system: adult brown dog ticks (Rhipicephalus sanguineus); test: Rhipicephalus sanguineus in-vitro contact test, adult brown dog ticks; settings: Rhipicephalus sanguineus; 1 μg/cm^2 (=100 g/ha), after 48 hours; read-out: efficacy (ticks dead or moribund)
Method in brief: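 Acetone solution (900 ppm giving 5 μg/cm²) coated on inner walls of glass tubes; after drying, 5-10 adult ticks added and held at room temperature 48 h. Ticks then placed on 45-50 °C plate ≤5 min; those unable to climb away scored dead/moribund, efficacy as % affected.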

[7] = test system: adult mosquitoes Aedes aegypti strain MONHEIM; test: Aedes aegypti test (AEDSAE surface treatment & contact assay); settings: surface concentration 4 mg/m^2, 30 min exposure, 24 hours after contact, read-out: efficacy (mortality)
Procedure: Aedes aegypti Test (AEDSAE Surface Treatment & Contact Assay
as §1
In order to produce a sufficient, active ingredient containing solution it is necessary to solve the test compound in the solvent-mix (acetone at 2 mg/ml/RME 2000 ppm). This solution is pipetted onto a glazed tile and after evaporation of the acetone, adult mosquitoes of the species Aedes aegypti strain MONHEIM are placed onto the dried surface. The exposure time is 30 minutes. Mortality in percent (%) is determined 24 hours after contact of the insects to the treated surface. 100% mortality means that all tested insects are dead, whereas 0% means that no insect died.

[8] = test system: fall armyworm larvae (Spodoptera frugiperda); test: Spodoptera frugiperda spray test (SPODFR); settings: in Zea mays, 168 h
Method in brief: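 Compound in acetone/dimethylformamide, diluted with water containing 1000 ppm alkylarylpolyglycol ether emulsifier. Maize leaf sections sprayed, dried, then infested with fall armyworm larvae. Mortality (%) scored after 7 days, 100% meaning all caterpillars killed.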

[9] = test system: green peach aphid (Myzus persicae); test: Myzus persicae spray test (MYZUPE); settings: in Brassica rapa, foliar, 120 h
Procedure: Myzus persicae—Spray Test
Solvent: 78.0 parts by weight acetone • 1.5 parts by weight dimethylformamide
as §3, §4
Chinese cabbage (Brassica pekinensis) leaf disks infected with all instars of the green peach aphid (Myzus persicae), are sprayed with a preparation of the active ingredient of the desired concentration.
(§5) After 5 days mortality in % is determined. 100% means all aphids have been killed and 0% means none of the aphids have been killed.
Myzus persicae—Spray Test (MYZUPE
After the specified period of time, mortality in % is determined. 100% means all aphids have been killed and 0% means none of the aphids have been killed.

[10] = test system: larvae of the southern green stink bug (Nezara viridula); test: Nezara viridula spray test; settings: Nezara viridula, in Hordeum vulgare, 96 h
Procedure: Nezara viridula—Spray Test
as §2, §3
To produce a suitable preparation of active compound, 1 part by weight of active compound is mixed with the stated amount of solvent, and the concentrate is diluted with water, containing an emulsifier concentration of 1000 ppm, to the desired concentration. Further test concentrations are prepared by dilution with emulsifier containing water.
Barley plants (Hordeum vulgare) are sprayed with a test solution containing the desired concentration of the active ingredient and are infested with larvae of the southern green stink bug (Nezara viridula).
After 4 days mortality in % is determined. 100% means all the stink bugs have been killed; 0% means none of the stink bugs have been killed.

[11] = test system: green peach aphid (Myzus persicae); test: Myzus persicae oral test; settings: 120 h
Procedure: Solvent: 100 parts by weight acetone
To produce a suitable preparation of active compound, 1 part by weight of active compound is mixed with the stated amount of solvent, and the concentrate is diluted with water to the desired concentration.
50 μL compound solution is filled in microtiter plates and 150 μL IPL41 insect medium (33%+15% sugar) is added to obtain a total volume of 200 μL per well. Afterwards the plates are sealed with parafilm through which a mixed population of the green peach aphid (Myzus persicae) can suck on the compound preparation.
as §5

[12] = test system: adult unfed cat fleas (Ctenocephalides felis); test: Ctenocephalides felis oral test; settings: 48 h, 100 ppm in citrated cattle blood, after 2 days
Procedure: Ctenocephalides felis—Oral Test
(§6) Solvent: Dimethyl Sulfoxide
To produce a suitable preparation of active compound, 10 mg of active compound are dissolved in 0.5 mL solvent, and the concentrate is diluted with citrated cattle blood to the desired concentration.
Approximately 20 adult unfed cat fleas (Ctenocephalides felis) are placed in a flea chamber whose top and bottom is covered with gauze. A chamber whose bottom is sealed with parafilm, is filled with the blood-compound solution and placed on top of the flea chamber, so that the fleas can suck the blood. The blood chamber is heated to 37° C. whereas the flea chamber is kept at room temperature.
After 2 days mortality in % is determined. 100% means all the fleas have been killed; 0% means none of the fleas have been killed.

[13] = test system: adult engorged female ticks (Rhipicephalus microplus); test: Rhipicephalus (Boophilus) microplus injection test; settings: 4 μg/tick, after 7 days
Procedure: Rhipicephalus (Boophilus) Microplus—Injection Test
as §6
To produce a suitable preparation of active compound, 10 mg of active compound are dissolved in 0.5 mL solvent, and the concentrate is diluted with solvent to the desired concentration.
Five adult engorged female ticks (Rhipicephalus microplus) are injected with 1 μL compound solution into the abdomen. The ticks are transferred into replica plates and incubated in a climate chamber.
After 7 days egg deposition of fertile eggs is monitored. Eggs where fertility is not visible are stored in a climate chamber till hatching after about 42 days. An efficacy of 100% means all eggs are infertile; 0% means all eggs are fertile.

SMILES | mortality at 20 mg/m2 [1] [%] | pest or weed control at 1 µg/cm2 [2] [%] | pest or weed control at 32 µg/disc, 100 g/ha [3] [%] | pest or weed control at 1 µg/cm2 [4] [%] | mortality at 500 g/ha [5] [%] | pest or weed control at 1 µg/cm2, 100 g/ha [6] [%] | mortality at 4 mg/m2 [7] [%] | mortality at 100 g/ha [8] [%] | mortality at 100 g/ha [9] [%] | mortality at 500 g/ha [10] [%] | mortality at 20 ppm [11] [%] | mortality at 100 ppm [12] [%] | efficacy (infertile eggs) [13] [%]
CNC(=O)c1cnc(-n2ncnc2[C@H](C)NC(=O)c2cc(OC(F)(F)F)cc(S(C)(=O)=O)c2)cn1 [Example I-019] | 80 to 100 | 100 | 100 | 100 | 100 | 100 | 80 to 100 | 100 | 90 | 100 | – | – | –
C[C@H](NC(=O)c1cc(C(F)(F)F)cc(S(C)(=O)=O)c1)c1ncnn1-c1cnc(C(N)=O)cn1 [Example I-030] | – | – | 100 | – | – | – | – | – | – | 90 | 100 | – | –
Cc1nc([C@H](C)NC(=O)c2cc(C(F)(F)F)cc(C(F)(F)F)c2)n(-c2cnc(C(=O)N(C)C3CC3)cn2)n1 [Example I-001] | – | 100 | – | 100 | 100 | 100 | – | 100 | 90 | 100 | – | 100 | 100
C[C@H](NC(=O)c1cc(OC(F)(F)F)cc(C2CC2)c1)c1ncnn1-c1cnc(C(=O)N(C)C2CC2)cn1 [Example I-003] | – | 100 | 100 | 100 | – | 80 | – | 100 | 90 | – | – | 100 | 100
C[C@H](NC(=O)c1cc(C(F)(F)F)cc(C(F)(F)F)c1)c1ncnn1-c1cnc(C(N)=O)cn1 [Example I-010] | – | 100 | – | 100 | 100 | 100 | – | 100 | 90 | 100 | – | 100 | 100
C[C@H](NC(=O)c1cc(OC(F)(F)F)cc(S(C)(=O)=O)c1)c1ncnn1-c1cnc(C(=O)N(C)C2CC2)cn1 [Example I-004] | – | 100 | 100 | 100 | 100 | 100 | – | 100 | 90 | 70 | 100 | 100 | 100
CCN(C)C(=O)c1cnc(-n2ncnc2[C@H](C)NC(=O)c2cc(C(F)(F)F)cc(C(F)(F)F)c2)cn1 [Example I-006] | – | 100 | – | 100 | 100 | 100 | – | 100 | 100 | – | – | 100 | 100
C[C@H](NC(=O)c1cc(C(F)(F)F)cc(C(F)(F)F)c1)c1ncnn1-c1cnc(C(=O)N(C)C)cn1 [Example I-005] | – | 100 | – | 100 | 100 | 100 | – | 100 | 100 | – | – | 100 | 100
CCN(C)C(=O)c1cnc(-n2ncnc2[C@H](C)NC(=O)c2cc(OC(F)(F)F)cc(S(C)(=O)=O)c2)cn1 [Example I-018] | – | 100 | 100 | 90 | 100 | 100 | – | 100 | 100 | 100 | 100 | – | –
